Laboratory results from patent publication US12122761B2, “2-azaspiro[3.4]octane derivatives as M4 agonists” (NOVARTIS AG, priority 2019, dated 2024).

Key:
[1] = target: T1, human cloned CHRM2 receptor (M2_CHO cells) (Homo sapiens, UniProt P08172); assay: CHRM2 Ca++ Flux Assay (agonist mode, FDSS 7000EX); format: cell-based; conditions: for Emax: Percent Activity measured to EC100 of Carbachol, read-out: M2 FDSS PA; for EC50: agonist mode, geometric mean if tested more than once, read-out: M2 FDSS EC50
T1 construct: expressed in transfected cells; host or cells: CHO-K1
T1 sequence (P08172 1-466): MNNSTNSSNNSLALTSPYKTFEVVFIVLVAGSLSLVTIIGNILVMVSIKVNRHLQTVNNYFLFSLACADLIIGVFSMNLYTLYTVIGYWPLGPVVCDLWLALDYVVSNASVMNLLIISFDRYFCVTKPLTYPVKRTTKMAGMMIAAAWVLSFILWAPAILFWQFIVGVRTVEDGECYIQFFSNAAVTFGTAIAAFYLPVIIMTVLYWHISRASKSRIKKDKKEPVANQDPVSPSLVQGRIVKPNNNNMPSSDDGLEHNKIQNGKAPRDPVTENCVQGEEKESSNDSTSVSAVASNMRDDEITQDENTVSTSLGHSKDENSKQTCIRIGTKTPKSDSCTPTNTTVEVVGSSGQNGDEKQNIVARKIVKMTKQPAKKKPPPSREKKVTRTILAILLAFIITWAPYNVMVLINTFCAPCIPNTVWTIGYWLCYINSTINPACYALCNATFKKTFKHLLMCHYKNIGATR
Outline: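 Response expressed as percent activity versus the Carbachol EC100, with curves fitted by four-parameter non-linear regression of triplicates. Stable M2_CHO cells were Ca++ dye-loaded and preincubated 60 min at room temperature in assay buffer containing 20 μM ATP; signal imaged for 3 minutes after compound.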

[2] = target: T2, human cloned CHRM5 receptor (M5_CHO) (Homo sapiens, UniProt P08912); assay: CHRM5 Ca++ Flux Assay (agonist mode, FDSS 7000EX); format: cell-based; conditions: for Emax: Percent Activity measured to EC100 of Carbachol, read-out: M5 FDSS PA; for EC50: agonist mode, geometric mean if tested more than once, read-out: M5 FDSS EC50
T2 construct: expressed in transfected cells; host or cells: CHO (M5_CHO)
T2 sequence (P08912 1-532): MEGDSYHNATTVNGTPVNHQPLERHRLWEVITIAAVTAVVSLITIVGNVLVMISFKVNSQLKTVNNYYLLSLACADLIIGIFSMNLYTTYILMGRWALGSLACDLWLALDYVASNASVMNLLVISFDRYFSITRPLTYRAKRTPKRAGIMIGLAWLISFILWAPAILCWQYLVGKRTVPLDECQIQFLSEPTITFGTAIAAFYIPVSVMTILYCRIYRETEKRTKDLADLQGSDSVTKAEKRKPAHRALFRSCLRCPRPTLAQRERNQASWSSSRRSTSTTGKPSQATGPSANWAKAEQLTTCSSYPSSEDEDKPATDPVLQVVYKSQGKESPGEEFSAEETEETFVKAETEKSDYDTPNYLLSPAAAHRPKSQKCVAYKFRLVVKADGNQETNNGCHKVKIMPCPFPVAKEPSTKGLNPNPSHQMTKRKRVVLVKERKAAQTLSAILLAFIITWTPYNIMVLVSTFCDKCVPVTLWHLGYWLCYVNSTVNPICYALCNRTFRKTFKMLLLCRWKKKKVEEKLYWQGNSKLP
Outline: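 CHO-K1 cells stably expressing human M3 or M5 receptor were dye-loaded for at least 1 h in HBSS with 20 mM HEPES and 2.5 mM probenecid, then given 11-point compound doses in triplicate.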

| Emax [1] [%] | EC50 [1] [nM] | Emax [2] [%] | EC50 [2] [nM] | Compound |
| --- | --- | --- | --- | --- |
| 22 | 64 | 0 | > 25000 | c1ccc(C2CCN([C@@H]3CCC4(C3)CN(c3nnco3)C4)CC2)c(OC2CCOCC2)c1 [Example 2F, (R)-2-(6-(4-(2-((tetrahydro-2H-pyran-4-yl)oxy)phenyl)piperidin-1-yl)-2-azaspiro[3.4]octan-2-yl)-1,3,4-oxadiazole] |
| 29 | 159 | 0 | > 25000 | c1ccc(C2CCOC2)c(C2CCN([C@@H]3CCC4(C3)CN(c3nnco3)C4)CC2)c1 (stereo partly drawn) [Example 2K, 2-((6R)-6-(4-(2-(tetrahydrofuran-3-yl)phenyl)piperidin-1-yl)-2-azaspiro[3.4]octan-2-yl)-1,3,4-oxadiazole] |
| 21 | 76 | 0 | > 25000 | c1ccc(C2CCN([C@@H]3CCC4(C3)CN(c3nncs3)C4)CC2)c(OC2COC2)c1 [Example 3A, (R)-2-(6-(4-(2-(oxetan-3-yloxy)phenyl)piperidin-1-yl)-2-azaspiro[3.4]octan-2-yl)-1,3,4-thiadiazole] |
| 16 | 18 | 0 | > 25000 | c1ccc(C2CCN([C@@H]3CCC4(C3)CN(c3nncs3)C4)CC2)c(OC[C@H]2COCCO2)c1 [Example 3B, 2-((R)-6-(4-(2-(((R)-1,4-dioxan-2-yl)methoxy)phenyl)piperidin-1-yl)-2-azaspiro[3.4]octan-2-yl)-1,3,4-thiadiazole] |
| 18 | 24 | 0 | > 25000 | c1ccc(C2CCN([C@@H]3CCC4(C3)CN(c3nncs3)C4)CC2)c(OC[C@@H]2COCCO2)c1 [Example 3C, 2-((R)-6-(4-(2-(((S)-1,4-dioxan-2-yl)methoxy)phenyl)piperidin-1-yl)-2-azaspiro[3.4]octan-2-yl)-1,3,4-thiadiazole] |
| 17 |  | 0 | > 25000 | COc1ccccc1C1CCN([C@@H]2CCC3(C2)CN(c2nncs2)C3)CC1 [Example 3D, (R)-2-(6-(4-(2-methoxyphenyl)piperidin-1-yl)-2-azaspiro[3.4]octan-2-yl)-1,3,4-thiadiazole] |
| 31 | 191 | 0 | > 25000 | Fc1cccc(C2CCN([C@@H]3CCC4(C3)CN(c3nncs3)C4)CC2)c1OC1COC1 [Example 3E, (R)-2-(6-(4-(3-fluoro-2-(oxetan-3-yloxy)phenyl)piperidin-1-yl)-2-azaspiro[3.4]octan-2-yl)-1,3,4-thiadiazole] |
| 0 |  | 0 | > 25000 | COCCOc1ccccc1C1CCN([C@@H]2CCC3(C2)CN(c2nncs2)C3)CC1 [Example 3F, (R)-2-(6-(4-(2-(2-methoxyethoxy)phenyl)piperidin-1-yl)-2-azaspiro[3.4]octan-2-yl)-1,3,4-thiadiazole] |
| 20 | 304 | 0 | > 25000 | CC(C)(O)COc1ccccc1C1CCN([C@@H]2CCC3(C2)CN(c2nncs2)C3)CC1 [Example 3G, (R)-1-(2-(1-(2-(1,3,4-thiadiazol-2-yl)-2-azaspiro[3.4]octan-6-yl)piperidin-4-yl)phenoxy)-2-methylpropan-2-ol] |
| 0 |  | 0 | > 25000 | CC(C)(O)CCOc1ccccc1C1CCN([C@@H]2CCC3(C2)CN(c2nncs2)C3)CC1 [Example 3H, (R)-4-(2-(1-(2-(1,3,4-thiadiazol-2-yl)-2-azaspiro[3.4]octan-6-yl)piperidin-4-yl)phenoxy)-2-methylbutan-2-ol] |
| 40 |  | 0 | > 25000 | COc1ccccc1C1CCN([C@@H]2CCC3(C2)CN(c2ccns2)C3)CC1 [Example 3I, (R)-5-(6-(4-(2-methoxyphenyl)piperidin-1-yl)-2-azaspiro[3.4]octan-2-yl)isothiazole] |
| 0 |  | 0 | > 25000 | COc1ccccc1C1CCN([C@@H]2CCC3(C2)CN(c2nc(C)ns2)C3)CC1 [Example 3M, (R)-5-(6-(4-(2-methoxyphenyl)piperidin-1-yl)-2-azaspiro[3.4]octan-2-yl)-3-methyl-1,2,4-thiadiazole] |

Continued, molecule first:

| Compound | Emax [1] [%] | EC50 [1] [nM] | Emax [2] [%] | EC50 [2] [nM] |
| --- | --- | --- | --- | --- |
| c1ccc(C2CCN([C@@H]3CCC4(C3)CN(c3nnco3)C4)CC2)c(OCC2CCOCC2)c1 [Example 2G, (R)-2-(6-(4-(2-((tetrahydro-2H-pyran-4-yl)methoxy)phenyl)piperidin-1-yl)-2-azaspiro[3.4]octan-2-yl)-1,3,4-oxadiazole] | 19 | 136 | 0 | > 25000 |
| c1ccc(C2CCN([C@@H]3CCC4(C3)CN(c3nnco3)C4)CC2)c(C2CCOCC2)c1 [Example 2H, (R)-2-(6-(4-(2-(tetrahydro-2H-pyran-4-yl)phenyl)piperidin-1-yl)-2-azaspiro[3.4]octan-2-yl)-1,3,4-oxadiazole] | 32 | 458 | 0 | > 25000 |
| Fc1ccc(C2CCOCC2)c(C2CCN([C@@H]3CCC4(C3)CN(c3nnco3)C4)CC2)c1 [Example 2I, (R)-2-(6-(4-(5-fluoro-2-(tetrahydro-2H-pyran-4-yl)phenyl)piperidin-1-yl)-2-azaspiro[3.4]octan-2-yl)-1,3,4-oxadiazole] | 41 | 125 | 0 | > 25000 |
| c1ccc(C2CCN([C@@H]3CCC4(C3)CN(c3nnco3)C4)CC2)c(CC2CCOCC2)c1 [Example 2L, (R)-2-(6-(4-(2-((tetrahydro-2H-pyran-4-yl)methyl)phenyl)piperidin-1-yl)-2-azaspiro[3.4]octan-2-yl)-1,3,4-oxadiazole] | 0 |  | 0 | > 25000 |
| c1ccc(C2CCN([C@@H]3CCC4(C3)CN(c3nnco3)C4)CC2)c(-c2ncco2)c1 [Example 2M, (R)-2-(6-(4-(2-(oxazol-2-yl)phenyl)piperidin-1-yl)-2-azaspiro[3.4]octan-2-yl)-1,3,4-oxadiazole] | 18 | 343 | 0 | > 25000 |
| COCCOc1ccccc1C1CCN([C@@H]2CCC3(C2)CN(c2ncns2)C3)CC1 [Example 3J, (R)-5-(6-(4-(2-(2-methoxyethoxy)phenyl)piperidin-1-yl)-2-azaspiro[3.4]octan-2-yl)-1,2,4-thiadiazole] | 0 |  | 0 | > 25000 |
| CC(C)(O)COc1ccccc1C1CCN([C@@H]2CCC3(C2)CN(c2ncns2)C3)CC1 [Example 3K, (R)-1-(2-(1-(2-(1,2,4-thiadiazol-5-yl)-2-azaspiro[3.4]octan-6-yl)piperidin-4-yl)phenoxy)-2-methylpropan-2-ol] | 0 |  | 0 | > 25000 |
| CC(C)(O)CCOc1ccccc1C1CCN([C@@H]2CCC3(C2)CN(c2ncns2)C3)CC1 [Example 3L, (R)-4-(2-(1-(2-(1,2,4-thiadiazol-5-yl)-2-azaspiro[3.4]octan-6-yl)piperidin-4-yl)phenoxy)-2-methylbutan-2-ol] | 0 |  | 0 | > 25000 |
| Fc1cncc(N2CC3(CC[C@@H](N4CCC(c5ccccc5C5CCOCC5)CC4)C3)C2)c1 [Example 5AA, (R)-2-(5-fluoropyridin-3-yl)-6-(4-(2-(tetrahydro-2H-pyran-4-yl)phenyl)piperidin-1-yl)-2-azaspiro[3.4]octane] | 28 | 1770 | 0 | > 25000 |
| c1ccc(C2CCN([C@@H]3CCC4(C3)CN(c3cncnc3)C4)CC2)c(C2CCOCC2)c1 [Example 5BB, (R)-2-(pyrimidin-5-yl)-6-(4-(2-(tetrahydro-2H-pyran-4-yl)phenyl)piperidin-1-yl)-2-azaspiro[3.4]octane] | 13 | 739 | 0 | > 25000 |
